Experimental data published in patent US12409187B2, “PH regulating hydrogels that neutralize cancer cell environment acidosis and increase chemotherapy efficacy” (Brown University, priority 2021, dated 2025).

Columns and labels:
Assay type in all cases: cell-based, human
[1] = tested on: MDA-MB-231 breast cancer cell line; experiment: Cell proliferation assay (image confluency, manual cell count); conditions: 1 μM doxorubicin
Method: Cell viability. Incubated MDA-MB-231 cells were passaged from a confluent T-flask into a 12-well culture plate, and the treatment hydrogels were added. For the viability study, the effect of modified PEG hydrogels bicarbonate concentrations of 200, 400, 600, and 800 mM was analyzed along with the control group with no treatment (bicarbonate), and a vehicle control of PEG with no bicarbonate. The cells were imaged every twenty-four hours under Nikon TS 100 inverted light microscope attached with Excelis HD camera and processed using an ImageJ image processing macro (performed by Gavin Mays) to estimate cell confluency from the imaged area coverage. At the end of day 5, the number of live and dead cells were estimated by Trypan staining and cell counting using a hemocytometer. Percentage viability was calculated from the number of live cells as a fraction of total cells.
Cell proliferation assay. MDA-MB-231 breast cancer cell line. Cells given pH, hydrogel, sodium bicarbonate, and doxorubicin treatment. At twenty-four hours, cell confluency is observed and recorded via image processing. At Day 6, cell counting was performed using a hemocytometer. All assays increased in confluency. […] Assays without hydrogels consistent with confluency analysis. Assays with any hydrogel have low manual cell counts.

MDA-MB-231 cells = experiment: MTT assay (metabolic activity), Example 2; conditions: 1 μM doxorubicin
Method: MTT assay. Measures metabolic activity. Cells reduce membrane permeable salt MTT (yellow) to formazan crystals (purple). Incubate for three days with treatment. Incubate for four hours with MTT. Add solubilization solution. Incubate for twelve hours. Measure absorbance of every well at OD570 nm-OD650 nm. See Riss et al., The Assay Guidance Manual (Eli Lilly & Company and the National Center for Advancing Translational Sciences. Bethesda, MD, USA, 2016). Hydrogels added to 7.4 pH with no drug had decreased metabolic activity. Hydrogels added to 6.5 pH with drug had decreased metabolic activity. Base-releasing hydrogel reduced cell proliferation, migration, and metabolic activity at an alkaline pH. Base-releasing hydrogel improved doxorubicin efficacy against cell proliferation, migration, and metabolic activity at an alkaline pH. Neutral-pH-adapted cells prefer neutral pH.
The metabolism of cancer cells can be measured by the activity of the mitochondrial reductase enzyme. […] The metabolic activity of the cells in culture can be measured by this conversion of MTT to formazan crystals. The absorbance can then be recorded at OD570 nm and OD650 nm to quantify the formazan produced by the cells through the mitochondrial reductase conversion from MTT. […] The absorbance is measured spectrophotometrically via a plate reader.

[2] = tested on: MDA-MB-231 breast cancer cells; experiment: pH-dependent doxorubicin efficacy on cell proliferation; conditions: 0.25 μM doxorubicin, 5-day treatment

Structure (SMILES): COc1cccc2c1C(=O)c1c(O)c3c(c(O)c1C2=O)C[C@@](O)(C(=O)CO)C[C@@H]3O[C@H]1C[C@H](N)[C@H](O)[C@H](C)O1 [doxorubicin]
- change of cell proliferation over the six-day trial period [1]: decrease
- metabolic activity versus assays without doxorubicin (MDA-MB-231 cells): statistically significantly less metabolic activity
- efficacy at preventing cell proliferation ([2]; pH 6.5): 40%
- effectiveness at preventing cell proliferation ([2]; pH 7.4): approximately 95%
